The text below walks through data of paper PMC12332554, “Novel Benzofuran-3-yl-methyl and Aliphatic Azacyclics: Design, Synthesis, and In Vitro and In Silico anti-Alzheimer Disease Activity Studies” (ACS Omega, 2025).

One assay addresses human BChE (Homo sapiens, UniProt P06276). Kind of assay: biochemical. Particulars: read-out: BChE % Inhibition.
Assay [1] deals with T1, AChE (Homo sapiens, UniProt P22303). Kind of assay: AChE inhibition, modified Ellman approach. The class given is biochemical. Particulars: for inhibition at 1000 µM: 10^-3 M; for inhibition at 100 µM: 10^-4 M; for inhibition at 10 µM: 10^-5 M; for inhibition at 1 µM: 10^-6 M; for inhibition at 0.1 µM: 10^-7 M; for inhibition at 0.01 µM: 10^-8 M; for inhibition at 0.001 µM: 10^-9 M. In general terms: In Ellman's method for cholinesterases, released thiocholine reacts with DTNB.
Method: (§1) According to the modified Ellman approach outlined in our earlier works − the AChE and BChE inhibitory activities of the obtained compounds were evaluated.

In assay [2] the target is T2, Human β-Secretase (BACE-1) (Homo sapiens, UniProt P56817).
T2 construct: purchased K720-100
The experiment in a line: Human β-Secretase (BACE-1) Inhibitor Screening Assay kit (fluorometric). The class given is biochemical.
From the text: The experimental procedure was based on the “Human β-Secretase (BACE-1) Inhibitor Screening Assay” kit (Human β-Secretase (BACE1) Inhibitor Screening Kit (Fluorometric)-Catalog no: K720-100) protocol based on the fluorometric method as performed previously.

The target in assay [3] is T1, AChE. The experiment in a line: Kinetic studies of AChE enzyme inhibition (Lineweaver–Burk, secondary plot). Type of assay: biochemical. Particulars: Lineweaver–Burk plots. The procedure:
Enzyme kinetics studies were conducted to determine the mechanism of inhibition of AChE using a procedure similar to that of the inhibition assay for cholinesterase enzymes. […] Linear Lineweaver–Burk graphs were used to estimate the type of inhibition of this compound. The velocity curves of the substrates were recorded in the absence and presence of compound 4m. […] In each case, the initial velocity measurements were obtained at different substrate (ATC) concentrations ranging from 600 to 18.75 μM.
For this purpose, this compound was prepared at different concentrations (IC50, 2xIC50 and IC50/2). Moreover, a substrate (ATC) was used at various concentrations (600, 300, 150, 75, 37.5, and 18.75 μM). The enzyme kinetics assay was carried out as in our previous. − Lineweaver–Burk plots were formed using Microsoft Office Excel 2013. The K i values of the compound were easily calculated from the second plot with a common intercept on the x-axis (corresponding to –K i).

T2 sequence (P56817 46-501): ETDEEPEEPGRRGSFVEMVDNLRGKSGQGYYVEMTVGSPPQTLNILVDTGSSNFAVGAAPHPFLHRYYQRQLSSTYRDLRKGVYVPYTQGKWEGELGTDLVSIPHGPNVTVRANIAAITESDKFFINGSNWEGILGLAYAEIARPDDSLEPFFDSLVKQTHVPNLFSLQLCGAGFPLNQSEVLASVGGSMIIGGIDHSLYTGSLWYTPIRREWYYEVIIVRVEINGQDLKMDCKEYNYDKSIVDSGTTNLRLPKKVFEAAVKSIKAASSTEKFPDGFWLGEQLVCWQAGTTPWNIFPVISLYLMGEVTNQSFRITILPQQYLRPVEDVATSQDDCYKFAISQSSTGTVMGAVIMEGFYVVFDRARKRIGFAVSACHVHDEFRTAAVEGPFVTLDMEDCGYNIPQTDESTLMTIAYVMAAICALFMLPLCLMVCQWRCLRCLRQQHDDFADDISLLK
Chain of human BChE (P06276 29-602): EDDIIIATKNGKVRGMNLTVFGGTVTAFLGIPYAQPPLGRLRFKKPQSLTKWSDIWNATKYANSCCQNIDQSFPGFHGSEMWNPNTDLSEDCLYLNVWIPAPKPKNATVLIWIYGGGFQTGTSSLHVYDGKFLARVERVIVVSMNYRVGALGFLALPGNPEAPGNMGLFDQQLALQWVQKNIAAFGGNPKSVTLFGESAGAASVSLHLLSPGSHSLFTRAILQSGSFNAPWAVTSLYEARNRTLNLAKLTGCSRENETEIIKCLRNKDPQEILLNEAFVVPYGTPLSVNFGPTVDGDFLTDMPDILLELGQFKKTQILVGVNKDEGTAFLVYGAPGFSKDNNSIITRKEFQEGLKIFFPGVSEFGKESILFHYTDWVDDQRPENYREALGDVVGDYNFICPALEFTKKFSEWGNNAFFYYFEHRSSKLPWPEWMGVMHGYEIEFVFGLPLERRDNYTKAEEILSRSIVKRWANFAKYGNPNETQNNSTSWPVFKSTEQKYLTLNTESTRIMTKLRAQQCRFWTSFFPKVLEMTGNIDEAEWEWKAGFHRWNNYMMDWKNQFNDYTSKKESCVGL
T1 sequence (P22303 32-614): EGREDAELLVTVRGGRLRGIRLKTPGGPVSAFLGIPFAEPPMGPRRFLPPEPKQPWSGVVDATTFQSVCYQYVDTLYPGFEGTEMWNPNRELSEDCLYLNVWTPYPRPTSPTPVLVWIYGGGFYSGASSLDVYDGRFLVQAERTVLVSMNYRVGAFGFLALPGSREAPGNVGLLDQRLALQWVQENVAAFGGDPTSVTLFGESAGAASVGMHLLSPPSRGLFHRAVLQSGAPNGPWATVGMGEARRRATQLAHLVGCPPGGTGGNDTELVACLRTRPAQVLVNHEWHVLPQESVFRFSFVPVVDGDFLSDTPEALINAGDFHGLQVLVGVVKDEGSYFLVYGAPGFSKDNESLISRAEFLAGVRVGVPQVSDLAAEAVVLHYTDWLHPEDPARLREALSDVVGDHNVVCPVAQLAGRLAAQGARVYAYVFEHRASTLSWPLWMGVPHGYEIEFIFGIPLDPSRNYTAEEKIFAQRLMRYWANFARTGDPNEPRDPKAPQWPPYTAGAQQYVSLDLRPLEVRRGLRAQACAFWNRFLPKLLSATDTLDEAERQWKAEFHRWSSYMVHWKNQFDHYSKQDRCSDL
Method for human BChE: as §1

Usually inhibition stands for the percentage by which the read-out fell short of the control. For the compound `O=C(c1ccccc1)c1oc2ccccc2c1CSC(=S)N1CCCCC1` [4a, (2-Benzoylbenzofuran-3-yl)methylpiperidine-1-dithiocarbamate], the inhibition at 100 µM at human BChE came to 25.8 ± 0.92%; on AChE [1] it was 40.7 ± 0.98%. The inhibition at 1000 µM on human BChE amounted to 31.7 ± 0.89%; against AChE [1], 65.2 ± 1.02%.

As for `CC1CCCCN1C(=S)SCc1c(C(=O)c2ccccc2)oc2ccccc12` (stereo not drawn) [4b, (2-Benzoylbenzofuran-3-yl)methyl 2-Methylpiperidine-1-dithiocarbamate], the inhibition at 100 µM on human BChE is 27.3 ± 0.79%; at AChE [1], 43.4 ± 1.62%. The inhibition at 1000 µM at human BChE turned out to be 33.9 ± 0.9%; at AChE [1] it was 58.4 ± 1.9%.

For the compound `CC1CCCN(C(=S)SCc2c(C(=O)c3ccccc3)oc3ccccc23)C1` (stereo not drawn) [4c, (2-Benzoylbenzofuran-3-yl)methyl 3-Methylpiperidine-1-dithiocarbamate], on human BChE, the inhibition at 100 µM came to 22.1 ± 0.84% and the inhibition at 1000 µM worked out at 30.4 ± 0.9%. Also, at AChE [1], 1000 µM produced 71.7 ± 1.1% inhibition and the inhibition at 100 µM worked out at 43 ± 0.89%.

For the compound `CC1CCN(C(=S)SCc2c(C(=O)c3ccccc3)oc3ccccc23)CC1` [4d, (2-Benzoylbenzofuran-3-yl)methyl 4-Methylpiperidine-1-dithiocarbamate], on human BChE, the inhibition at 100 µM amounted to 24.4 ± 0.93% and the inhibition at 1000 µM was determined as 28.3 ± 0.81%. At AChE [1], 1000 µM produced 63.8 ± 1.59% inhibition and the inhibition at 100 µM turned out to be 40.7 ± 0.97%.

As a reminder, the IC50 is the concentration needed to halve the response being measured. Low values mean greater potency, high ones weaker potency. For the compound `O=C(c1ccccc1)c1oc2ccccc2c1CSC(=S)N1CCC(Cc2ccccc2)CC1` [4e, (2-Benzoylbenzofuran-3-yl)methyl 4-Benzylpiperidine-1-dithiocarbamate], at human BChE, the inhibition at 100 µM amounted to 29 ± 0.73% and the inhibition at 1000 µM is 35.6 ± 0.88%. At AChE [1], this compound registered an IC50 of 49 ± 2 nM, an inhibition at 1000 µM of 92.6 ± 1.38%, an inhibition at 100 µM of 88.6 ± 1.4% and an inhibition at 10 µM of 80.2 ± 1.11%. At AChE [1], this compound yielded an inhibition at 1 µM of 74.3 ± 1.5%, an inhibition at 0.1 µM of 61.6 ± 0.92%, an inhibition at 0.01 µM of 45.4 ± 0.72% and an inhibition at 0.001 µM of 21.5 ± 0.86%. For the same compound, in assay [2], the IC50 was found to be 134 ± 6 nM.

As for `O=C(c1ccccc1)c1oc2ccccc2c1CSC(=S)N1CCOCC1` [4f, (2-Benzoylbenzofuran-3-yl)methyl Morpholine-4-dithiocarbamate], at human BChE, the inhibition at 100 µM stood at 20.7 ± 0.86% and the inhibition at 1000 µM came to 28.4 ± 0.92%. At AChE [1], this compound registered an inhibition at 1000 µM of 70.8 ± 1.12% and an inhibition at 100 µM of 41.3 ± 0.9%.

Take `CN(C)CCCN1CCN(C(=S)SCc2c(C(=O)c3ccccc3)oc3ccccc23)CC1` [4g, (2-Benzoylbenzofuran-3-yl)methyl 4-(3-(Dimethylamino)propyl)piperazine-1-dithiocarbamate]: the inhibition at 100 µM came to 21.7 ± 0.93% on human BChE and 39.1 ± 0.87% against AChE [1]. In addition, the results for the inhibition at 1000 µM on human BChE and against AChE [1] were 29.3 ± 0.89% and 69 ± 0.97%, respectively.

For the compound `O=C(c1ccccc1)c1oc2ccccc2c1CSC(=S)N1CCN(C(=O)c2ccco2)CC1` [4h, (2-Benzoylbenzofuran-3-yl)methyl 4-(Furan-2-carbonyl)piperazine-1-dithiocarbamate], on human BChE, the inhibition at 100 µM was found to be 28.3 ± 0.82% and the inhibition at 1000 µM was determined as 36.8 ± 0.76%. Besides, on AChE [1], the IC50 was 54 ± 2 nM, the inhibition at 1000 µM is 90.7 ± 1.24%, 100 µM produced 84.2 ± 1.33% inhibition and the inhibition at 10 µM is 80.3 ± 1.1%. Moreover, at AChE [1], the inhibition at 1 µM was determined as 75.9 ± 1.32%, at 0.1 µM the inhibition was 60.3 ± 0.97%, the inhibition at 0.01 µM is 45.7 ± 0.87% and the inhibition at 0.001 µM was determined as 23 ± 0.78%. The compound also showed an IC50 in assay [2] of 155 ± 7 nM.

Take `O=C(c1ccccc1)c1oc2ccccc2c1CSC(=S)N1CCN(c2ncccn2)CC1` [4i, (2-Benzoylbenzofuran-3-yl)methyl 4-(Pyrimidine-2-yl)piperazine-1-dithiocarbamate]: the inhibition at 100 µM turned out to be 20.8 ± 0.88% at human BChE and 43.6 ± 0.87% at AChE [1]. Further, the inhibition at 1000 µM on human BChE stood at 28.6 ± 0.82%; against AChE [1], 72.8 ± 1%.

In the case of `O=C(c1ccccc1)c1oc2ccccc2c1CSC(=S)N1CCN(c2ccccc2)CC1` [4j, (2-Benzoylbenzofuran-3-yl)methyl 4-Phenylpiperazine-1-dithiocarbamate], at human BChE, the inhibition at 100 µM is 24.9 ± 0.92% and the inhibition at 1000 µM was found to be 31.6 ± 0.73%. Besides, on AChE [1], testing at 1000 µM gave an inhibition of 75.6 ± 1.05% and testing at 100 µM gave an inhibition of 41 ± 0.79%.

For `O=C(c1ccccc1)c1oc2ccccc2c1CSC(=S)N1CCN(c2ccc([N+](=O)[O-])cc2)CC1` [4k, (2-Benzoylbenzofuran-3-yl)methyl 4-(4-Nitrophenyl)piperazine-1-dithiocarbamate], on human BChE, the inhibition at 100 µM stood at 23.6 ± 0.83% and the inhibition at 1000 µM amounted to 30.4 ± 0.93%. Also, on AChE [1], the inhibition at 1000 µM is 69 ± 1% and the inhibition at 100 µM was 41.6 ± 0.95%.

`COc1ccc(N2CCN(C(=S)SCc3c(C(=O)c4ccccc4)oc4ccccc34)CC2)cc1` [4l, (2-Benzoylbenzofuran-3-yl)methyl 4-(4-Methoxyphenyl)piperazine-1-dithiocarbamate]: the inhibition at 100 µM on human BChE was 21.4 ± 0.87%; against AChE [1], 43.9 ± 0.98%. Moreover, the inhibition at 1000 µM at human BChE is 30.5 ± 0.87%; against AChE [1] it was 72.3 ± 1.1%.

As for `O=C(c1ccccc1)c1oc2ccccc2c1CSC(=S)N1CCN(CCO)CC1` [4m, (2-Benzoylbenzofuran-3-yl)methyl 4-(2-Hydroxyethyl)piperazine-1-dithiocarbamate], at human BChE, the inhibition at 100 µM was found to be 31.1 ± 0.73% and the inhibition at 1000 µM amounted to 39.1 ± 0.76%. At AChE [1], the IC50 came to 29 ± 1 nM, the inhibition at 1000 µM came out at 94.3 ± 1.64%, the inhibition at 100 µM is 89.4 ± 1.5% and the inhibition at 10 µM was 80.2 ± 1.48%. In addition, on AChE [1], the inhibition at 1 µM stood at 75.4 ± 1.1%, the inhibition at 0.1 µM turned out to be 70.4 ± 1.21%, the inhibition at 0.01 µM is 44.7 ± 0.97% and the inhibition at 0.001 µM came to 26.6 ± 0.72%. Also, the IC50 in assay [2] was determined as 84 ± 3 nM. For the same compound, on AChE [3], the “type of AChE inhibition” value was “reversible and mixed-type inhibitor”.

`O=C(c1ccccc1)c1oc2ccccc2c1CSC(=S)N1CCN(c2ccc(Cl)cc2)CC1` [4n, (2-Benzoylbenzofuran-3-yl)methyl 4-(4-Chlorophenyl)piperazine-1-dithiocarbamate]: on human BChE, the inhibition at 100 µM is 20.1 ± 0.78% and the inhibition at 1000 µM was determined as 29.6 ± 0.86%. Also, at AChE [1], the inhibition at 1000 µM came out at 76.7 ± 1.26% and the inhibition at 100 µM came to 46.8 ± 0.86%.

For the compound `O=C(c1ccccc1)c1oc2ccccc2c1CSC(=S)N1CCN(c2ccc(F)cc2)CC1` [4o, (2-Benzoylbenzofuran-3-yl)methyl 4-(4-Fluorophenyl)piperazine-1-dithiocarbamate], on human BChE, the inhibition at 100 µM was 30.3 ± 0.82% and the inhibition at 1000 µM amounted to 37.5 ± 0.75%. On AChE [1], this compound registered an IC50 of 41 ± 2 nM, an inhibition at 1000 µM of 91.2 ± 1.57%, an inhibition at 100 µM of 83.6 ± 1.47% and an inhibition at 10 µM of 75 ± 1.67%. On AChE [1], this compound showed an inhibition at 1 µM of 65.8 ± 1.1%, an inhibition at 0.1 µM of 58.3 ± 1%, an inhibition at 0.01 µM of 48 ± 0.95% and an inhibition at 0.001 µM of 20.8 ± 0.74%. Besides, in assay [2], the half-maximal inhibitory concentration (IC50) is greater than 10000 nM and the “β-secretase (BACE-1) IC50” value is recorded as “no significant inhibition”.
